Test results taken from PMC6270420, “Antibacterial Activity of Salicylanilide 4-(Trifluoromethyl)benzoates” (Molecules, 2013).
Values after ≈ are worked out from the molar mass of the structure shown. Like-named read-outs stand apart in the source and are kept apart here.

How the values were obtained:
[1] = tested on: Mycobacterium tuberculosis 331/88 (H37Rv); assay: Antimycobacterial MIC micromethod, Šula's medium; assay type: cell-based
[2] = tested on: Mycobacterium avium 330/88; assay: Antimycobacterial MIC micromethod; assay type: cell-based
[3] = tested on: Mycobacterium kansasii 235/80; assay: Antimycobacterial MIC micromethod; assay type: cell-based; conditions: read-out: MIC M. kansasii 235/80
[4] = tested on: M. kansasii 6509/96 (clinically isolated strain); assay: Antimycobacterial MIC micromethod; assay type: cell-based; conditions: Mycobacterium kansasii, read-out: MIC M. kansasii 6509/96
Mtb. 7357/1988 = assay: microbe, parasite or virus in culture; assay type: cell-based; conditions: Mycobacterium tuberculosis, read-out: MIC Mtb. 7357/1988
Mtb. 9449/2006 = assay: microbe, parasite or virus in culture; assay type: cell-based; conditions: Mycobacterium tuberculosis, read-out: MIC Mtb. 9449/2006
Mtb. 53/2009 = assay: microbe, parasite or virus in culture; assay type: cell-based; conditions: Mycobacterium tuberculosis, read-out: MIC Mtb. 53/2009
Mtb. 234/2005 = assay: microbe, parasite or virus in culture; assay type: cell-based; conditions: Mycobacterium tuberculosis, read-out: MIC Mtb. 234/2005
Mtb. Praha 1 = assay: microbe, parasite or virus in culture; assay type: cell-based; conditions: Mycobacterium tuberculosis, read-out: MIC Mtb. Praha 1
Mtb. Praha 131 (XDR-TB) = assay: microbe, parasite or virus in culture; assay type: cell-based; conditions: Mycobacterium tuberculosis, read-out: MIC Mtb. Praha 131 (XDR-TB)
[5] = molecular target: T1, mycobacterial isocitrate lyase (ICL1, Rv0467) (Mycobacterium tuberculosis, UniProt P9WKK7); assay: Isocitrate lyase inhibition assay (ICL1); assay type: biochemical, Mycobacterium tuberculosis H37Rv; conditions: 10 μmol/L; read-out: % ICL inhibition at 10 μmol/L (± standard deviation)
T1 construct: His tag (from pET-28b(+)); made in house; host or cells: E. coli BL21(DE3), pET-28b(+) plasmid
T1 sequence (P9WKK7 1-428): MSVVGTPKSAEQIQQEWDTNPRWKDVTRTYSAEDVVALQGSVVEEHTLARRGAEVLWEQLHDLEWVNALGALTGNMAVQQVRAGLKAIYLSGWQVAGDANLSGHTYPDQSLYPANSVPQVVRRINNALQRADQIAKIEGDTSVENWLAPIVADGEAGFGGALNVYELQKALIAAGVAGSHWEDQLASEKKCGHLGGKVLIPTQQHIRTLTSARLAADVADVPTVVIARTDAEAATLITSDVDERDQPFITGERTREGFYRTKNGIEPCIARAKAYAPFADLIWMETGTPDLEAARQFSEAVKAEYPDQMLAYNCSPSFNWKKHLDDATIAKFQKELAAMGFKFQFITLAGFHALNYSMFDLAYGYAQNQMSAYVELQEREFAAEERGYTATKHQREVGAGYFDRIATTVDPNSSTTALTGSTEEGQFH

HepG2 cells = assay: Cytotoxicity evaluation (CellTiter 96 MTS); assay type: cell-based, human; conditions: Homo sapiens, HepG2, 24 h, read-out: IC50 HepG2
Method in brief: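 Human HepG2 cells (passages 21–24) seeded 1 × 10^4/well, treated next day with 0.01–20 µM compound (4-(trifluoromethyl)benzoic acid 10–4,000 µM), triplicates, 24 h at 37 °C. MTS reduction read at 490 nm after 2 h; IC50 = concentration cutting viability to 50% of control.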

[6] = 336 h, 14 d, read-out: MIC Mtb. 331/88
[7] = 504 h, 21 d, read-out: MIC Mtb. 331/88
[8] = time not stated, read-out: MIC against M. tuberculosis

| SMILES | MIC [1, 6] | MIC [1, 7] | MIC ([2]; 330/88, 336 h, 14 d) | MIC ([2]; 330/88, 504 h, 21 d) | MIC ([3]; 235/80, 168 h, 7 d) | MIC ([3]; 235/80, 336 h, 14 d) | MIC ([3]; 235/80, 504 h, 21 d) | MIC ([4]; 168 h, 7 d) | MIC ([4]; 336 h, 14 d) | MIC ([4]; 504 h, 21 d) | MIC (Mtb. 7357/1988; 336 h) | MIC (Mtb. 7357/1988; 504 h) | MIC (Mtb. 9449/2006; 336 h) | MIC (Mtb. 9449/2006; 504 h) | MIC (Mtb. 53/2009; 336 h) | MIC (Mtb. 53/2009; 504 h) | MIC (Mtb. 234/2005; 336 h) | MIC (Mtb. 234/2005; 504 h) | MIC (Mtb. Praha 1; 336 h) | MIC (Mtb. Praha 1; 504 h) | other results |
| --- | --- | --- | --- | --- | --- | --- | --- | --- | --- | --- | --- | --- | --- | --- | --- | --- | --- | --- | --- | --- | --- |
| O=C(Oc1ccc(Cl)cc1C(=O)Nc1ccc(Cl)c(Cl)c1)c1ccc(C(F)(F)F)cc1 [1e] | 1 µM (≈ 0.489 µg/mL) | 1 µM (≈ 0.489 µg/mL) | 4 µM (≈ 1.95 µg/mL) | 4 µM (≈ 1.95 µg/mL) | 1 µM (≈ 0.489 µg/mL) | 2 µM (≈ 0.977 µg/mL) | 4 µM (≈ 1.95 µg/mL) | 1 µM (≈ 0.489 µg/mL) | 2 µM (≈ 0.977 µg/mL) | 4 µM (≈ 1.95 µg/mL) | 1 µM (≈ 0.489 µg/mL) | 2 µM (≈ 0.977 µg/mL) | 2 µM (≈ 0.977 µg/mL) | 2 µM (≈ 0.977 µg/mL) | 2 µM (≈ 0.977 µg/mL) | 4 µM (≈ 1.95 µg/mL) | 1 µM (≈ 0.489 µg/mL) | 2 µM (≈ 0.977 µg/mL) | 1 µM (≈ 0.489 µg/mL) | 2 µM (≈ 0.977 µg/mL) | MIC [1, 8]: 1 µM (≈ 0.489 µg/mL); MIC (Mtb. Praha 131 (XDR-TB); 336 h): 2 µM (≈ 0.977 µg/mL); MIC (Mtb. Praha 131 (XDR-TB); 504 h): 2 µM (≈ 0.977 µg/mL); inhibition at 10 µM [5]: 18 ± 1.5%; IC50 (HepG2 cells): 3.13 µM |
| O=C(Oc1cc(Cl)ccc1C(=O)Nc1ccc(Br)cc1)c1ccc(C(F)(F)F)cc1 [1j] | 2 µM (≈ 0.997 µg/mL) | 4 µM (≈ 1.99 µg/mL) | 8 µM (≈ 3.99 µg/mL) | 8 µM (≈ 3.99 µg/mL) | 1 µM (≈ 0.499 µg/mL) | 4 µM (≈ 1.99 µg/mL) | 4 µM (≈ 1.99 µg/mL) | 2 µM (≈ 0.997 µg/mL) | 4 µM (≈ 1.99 µg/mL) | 4 µM (≈ 1.99 µg/mL) | 2 µM (≈ 0.997 µg/mL) | 2 µM (≈ 0.997 µg/mL) | 2 µM (≈ 0.997 µg/mL) | 2 µM (≈ 0.997 µg/mL) | 2 µM (≈ 0.997 µg/mL) | 2 µM (≈ 0.997 µg/mL) | 2 µM (≈ 0.997 µg/mL) | 2 µM (≈ 0.997 µg/mL) | 2 µM (≈ 0.997 µg/mL) | 2 µM (≈ 0.997 µg/mL) | MIC (Mtb. Praha 131 (XDR-TB); 336 h): 1 µM (≈ 0.499 µg/mL); MIC (Mtb. Praha 131 (XDR-TB); 504 h): 2 µM (≈ 0.997 µg/mL); inhibition at 10 µM [5]: 14 ± 4%; IC50 (HepG2 cells): 4.82 µM |
| O=C(Oc1ccc(Cl)cc1C(=O)Nc1ccc(C(F)(F)F)cc1)c1ccc(C(F)(F)F)cc1 [1o, 4-chloro-2-[4-(trifluoromethyl)phenylcarbamoyl]phenyl 4-(trifluoromethyl)benzoate] | 1 µM (≈ 0.488 µg/mL) | 1 µM (≈ 0.488 µg/mL) | 1 µM (≈ 0.488 µg/mL) | 4 µM (≈ 1.95 µg/mL) | 1 µM (≈ 0.488 µg/mL) | 2 µM (≈ 0.976 µg/mL) | 2 µM (≈ 0.976 µg/mL) | 1 µM (≈ 0.488 µg/mL) | 2 µM (≈ 0.976 µg/mL) | 2 µM (≈ 0.976 µg/mL) | 0.5 µM (≈ 0.244 µg/mL) | 1 µM (≈ 0.488 µg/mL) | 1 µM (≈ 0.488 µg/mL) | 1 µM (≈ 0.488 µg/mL) | 1 µM (≈ 0.488 µg/mL) | 1 µM (≈ 0.488 µg/mL) | 0.5 µM (≈ 0.244 µg/mL) | 1 µM (≈ 0.488 µg/mL) | 0.5 µM (≈ 0.244 µg/mL) | 0.5 µM (≈ 0.244 µg/mL) | MIC [1, 8]: 1 µM (≈ 0.488 µg/mL); MIC (Mtb. Praha 131 (XDR-TB); 336 h): 0.5 µM (≈ 0.244 µg/mL); MIC (Mtb. Praha 131 (XDR-TB); 504 h): 1 µM (≈ 0.488 µg/mL); inhibition at 10 µM [5]: 13 ± 1.2%; IC50 (HepG2 cells): 1.33 µM |
